From patent US20050267077A1 (priority 2004, published 2005)

What was measured:
rats = assay: Object Recognition Task (episodic memory), 6 hour delay; conditions: for performance in the object recognition task: 6 h delay; for disruption of behavior: first four rats; for Recognition Score: vehicle 60%
Experimental: It is based on rodents' natural preference for exploring novel objects over familiar objects. The experimental protocol is as follows:
The experiment takes place over a total of 4 days. Objects used for testing included square 60-mL clear glass tablet bottles with a black phenolic cap (“bottle”) or […] high, 1¼-inch interior diameter aluminum electrical metal tubing conduit couplings (“conduit”). On the first 3 days, the rat was placed into a test box for 15 minutes of habituation. On the fourth day, two identical copies of the same object were arranged in the box, one in each of the near corners about ½ inch from the walls—two bottles for half of the rats, two conduits for the other half. The rat was brought to the test room, placed in the middle of the box facing the center of the back wall, and allowed to explore the objects for a 3-minute information trial, after which it was returned to its home cage and to the housing room. After a specified delay, one copy of the original object (“familiar,” not the copy already encountered) and one copy of the other object (“novel”) were arranged in the near corners, with positions counterbalanced to avoid bias, and the rat was placed back in the box for a recognition trial. […] The result of scoring is the time spent with the novel object, expressed as a %-age number (the “Recognition Score”)
Normal rats spend more time exploring the novel object, indicating memory for the sample object. Increases in the length of the delay, however, reduce the rat's ability to distinguish between the two objects in the recognition trial. For the testing of cognition-enhancing agents, a delay or inter-trial interval (ITI) is typically chosen at which complete forgetting normally occurs (i.e. where the time spent exploring both the novel and familiar object is equal), as this allows for considerable room for improvement in performance.
Both drugs were administered by intraperitoneal (IP) injection.
To generate a dose-effect curve for galantamine, various doses of this compound were administered to rats by IP injection 30 minutes prior to the information trial and compared to vehicle (0.5%-methyl cellulose)-treated controls (FIG. 7A).

Long-Evans rats = assay: 8 hour retention test on a twelve-arm radial maze (spatial memory); type: in vivo, rat; conditions: 60 min prior to information session, vs vehicle (p<0.02)
Experimental: 12-arm maze test: Behavioral testing was conducted by an experimenter who was blind to drug treatment. 12 Long-Evans rats trained to use a win-shift strategy were given an information trial. During the information trial, 5 of the 12 arms of the 12 arm maze were blocked so that rats were not able to consume food from those blocked arms but could obtain food from each of the 7 open arms. After this session rats were moved to their home cage and placed back in the animal holding room. […] A retroactive memory error is made when the rat enters an arm that was […] on the information trial.
. Physiological saline (NaCl) was used as vehicle. […]

[1] = cited from earlier work

COc1cc2c(cc1OC)C(=O)C(CC1CCN(Cc3ccccc3)CC1)C2 (racemic) [donepezil, (±)-2,3-dihydro-5,6-dimethoxy-2-[[1-(phenylmethyl)-4-piperidinyl]methyl]-1H-inden-1-one]
performance in the object recognition task (rats; donepezil 1.7 mg/kg IP, 30 min prior to information trial): significantly improved performance | adverse side effects in the rat (rats; donepezil doses higher than 1.7 mg/kg IP): began to produce adverse side effects | retention test performance on the 12-arm maze (Long-Evans rats; 3 mg/kg donepezil IP): improved performance

CCN(C)C(=O)Oc1cccc([C@H](C)N(C)C)c1 [rivastigmine]
disruption of behavior (rats; rivastigmine 1 mg/kg IP): grossly disrupted behavior | effect on memory in the object recognition task (rats; rivastigmine 0.01, 0.017, 0.03, 0.056, 0.17 and 0.3 mg/kg IP, vs vehicle): no significant effect on memory | performance in the object recognition task (rats; rivastigmine 0.1 IP, 30 min prior, vs vehicle (p=0.056)): approached a significant improvement in performance | Recognition Score (rats; rivastigmine alone 0.01 mg/kg): 55% | Recognition Score (rats; rivastigmine alone 0.017 mg/kg): 59% | half-life in humans [1]: about 1.5 h

CCCCP(=O)(O)CCCN [ABPA, 3-aminopropyl-(n-butyl)-phosphinic acid]
performance in the object recognition task (rats; ABPA 3 and 30 mg/kg IP, 30 min prior to information trial, vs saline): no beneficial effect | performance in the object recognition task (rats; ABPA 10, 100, 170, and 300 mg/kg IP, 30 min prior to information trial, vs saline): significantly enhanced performance | Recognition Score (rats; ABPA alone 3 mg/kg, Example 5 rivastigmine interaction study): 58% | Recognition Score (rats; ABPA alone 3 mg/kg, Example 6 galantamine interaction study): 58% | retention test performance on the 12-arm maze (Long-Evans rats; 150 mg/kg ABPA IP): improved performance

COc1ccc2c3c1O[C@H]1C[C@@H](O)C=C[C@@]31CCN(C)C2 [galantamine]
disruption of behavior (rats; galantamine 3 mg/kg IP): gross disruption of behavior | Recognition Score (rats; galantamine alone 0.17 mg/kg): 55% | Recognition Score (rats; galantamine alone 0.3 mg/kg): 62% | half-life in humans [1]: 5 to 6 h
